According to patent US8828991B2, “Azacyclyl-substituted arylthienopyrimidinones, process for their preparation and their use as medicaments” (Sanofi, priority 2006, dated 2014):

Biological target: T1, human MCH receptor (Homo sapiens, UniProt Q99705)
T1 construct: expressed in transfected cells
Assay: calcium immobilization assay: functional IC50 of MCH1R antagonists (cellular calcium flux, FLIPR)
Type: cell-based
Details: recombinant HEK293 cell line expressing the human MCH receptor, calcium flux after addition of agonist (MCH)
From the text: Influence on the MCH receptor in vitro; determination of functional IC50 values of MCH1R antagonists
Cloning of the cDNA for the human MCH receptor, preparation of a recombinant HEK293 cell line which expresses the human MCH receptor, and functional measurements with the recombinant cell line took place in analogy to the description by Audinot et al. (J. Biol. Chem. 276, 13554-13562, 2001). A difference from the reference was, however, the use of the plasmid pEAK8 from EDGE Biosystems (JSA) for the construction of the expression vector. The host used for the transfection was a transformed HEK cell line named “PEAK Stable Cells” (likewise from EDGE Biosystems). Functional measurements of the cellular calcium flux after addition of agonist (MCH) in the presence of ligand of the invention took place with the aid of the FLIPR apparatus from Molecular Devices (USA), using protocols of the apparatus manufacturer. The compounds of the invention show a significant inhibition (>30%) of the signal induced by the agonist at a concentration of 100 μM, preferably at 10 μM, particularly preferably at 1 μM, very particularly preferably at 100 nM and even more particularly preferably at 10 nM.

T1 sequence (Q99705 whole entry): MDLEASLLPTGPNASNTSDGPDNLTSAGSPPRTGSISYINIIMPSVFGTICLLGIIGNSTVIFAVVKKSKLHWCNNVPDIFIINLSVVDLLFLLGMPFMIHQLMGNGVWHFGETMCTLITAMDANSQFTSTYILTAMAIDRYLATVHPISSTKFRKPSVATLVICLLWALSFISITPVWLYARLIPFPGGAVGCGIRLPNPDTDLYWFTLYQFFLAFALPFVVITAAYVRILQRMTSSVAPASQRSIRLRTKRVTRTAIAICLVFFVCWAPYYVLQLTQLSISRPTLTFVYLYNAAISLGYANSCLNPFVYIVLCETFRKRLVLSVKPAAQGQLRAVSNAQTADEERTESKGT

`CC(O)C#Cc1cc2ncn(-c3ccc(N4CC[C@@H](N(C)C)C4)cc3)c(=O)c2s1` (stereo partly drawn) [Example 30, 3-[4-((R)-3-Dimethylaminopyrrolidin-1-yl)phenyl]-6-(3-hydroxybut-1-ynyl)-3H-thieno[3,2-d]pyrimidin-4-one] and `CC(O)C#Cc1cc2ncn(-c3ccc(N4CC[C@@H](N(C)CCS(C)(=O)=O)C4)cc3)c(=O)c2s1` (stereo partly drawn) [Example 38] are within 1.5-fold of each other in IC50: 0.38 µM for the first, 0.44 µM for the second.

First: COC(C)(C)CCc1cc2ncn(-c3ccc(N4CC[C@@H](N(C)C)C4)cc3)c(=O)c2s1 [Example 57]
Second: CCCOCc1cc2ncn(-c3ccc(N4CCC(N(C)C)C4)cc3)c(=O)c2s1 (stereo not drawn) [Example 95, 3-[4-(3-Dimethylamino-pyrrolidin-1-yl)-phenyl]-6-propoxymethyl-3H-thieno[3,2-d]pyrimidin-4-one]
The IC50 of the first is 6.1-fold higher: 2.09 µM for the first, 0.34 µM for the second. The second is the more potent here.

`CN1CCCN(c2ccc(-n3cnc4cc(C(=O)C5CCCC5)sc4c3=O)cc2)CC1` [Example 76, 6-Cyclopentanecarbonyl-3-[4-(4-methyl[1,4]diazepan-1-yl)phenyl]-3H-thieno[3,2-d]pyrimidin-4-one] and `CN1CCCN(c2ccc(-n3cnc4cc(C(O)C5CCCC5)sc4c3=O)cc2)CC1` (stereo not drawn) [Example 77, 6-(Cyclopentylhydroxymethyl)-3-[4-(4-methyl[1,4]diazepan-1-yl)phenyl]-3H-thieno[3,2-d]-pyrimidin-4-one] are within 1.5-fold of each other in IC50: 8.74 µM for the first, 9.03 µM for the second.

`CS(=O)(=O)CCN1CCCN(c2ccc(-n3cnc4cc(C#CC5CC5)sc4c3=O)cc2)CC1` [Example 44, 6-Cyclopropylethynyl-3-{4-[4-(2-methanesulfonyl-ethyl)-[1,4]diazepan-1-yl]-phenyl}-3H-thieno[3,2-d]pyrimidin-4-one] and `CC(C)C(O)C#Cc1cc2ncn(-c3ccc(N4CCCN(C)CC4)cc3)c(=O)c2s1` (stereo not drawn) [Example 26] are within 1.5-fold of each other in IC50: 0.74 µM for the first, 1.1 µM for the second.

`CCC(O)C#Cc1cc2ncn(-c3ccc(N4CC[C@@H](N(C)CCS(C)(=O)=O)C4)cc3)c(=O)c2s1` (stereo partly drawn) [Example 40] and `COCC#Cc1cc2ncn(-c3ccc(N4CC[C@@H](N(C)CCS(C)(=O)=O)C4)cc3)c(=O)c2s1` [Example 39] are within 1.5-fold of each other in IC50: 0.66 µM for the first, 0.92 µM for the second.

`CN(C)[C@@H]1CCN(c2ccc(-n3cnc4cc(N5CCCCC5)sc4c3=O)cc2)C1` [Example 65, 3-[4-((R)-3-Dimethylaminopyrrolidin-1-yl)phenyl]-6-piperidin-1-yl-3H-thieno[3,2-d]pyrimidin-4-one] and `CN(C)[C@@H]1CCN(c2ccc(-n3cnc4cc(C#CC5(O)CCCC5)sc4c3=O)cc2)C1` [Example 32] are within 1.5-fold of each other in IC50: 1.33 µM for the first, 1.35 µM for the second.

`COCC#Cc1cc2ncn(-c3ccc(N4CC[C@@H](N(C)C)C4)c(F)c3)c(=O)c2s1` [Example 47] and `CC(O)C#Cc1cc2ncn(-c3ccc(N4CC[C@@H](N(C)C)C4)c(F)c3)c(=O)c2s1` (stereo partly drawn) [Example 49] are within 1.5-fold of each other in IC50: 0.23 µM for the first, 0.18 µM for the second.

First: CCC(O)CCc1cc2ncn(-c3ccc(N4CC[C@@H](N5CCCC5)C4)c(F)c3)c(=O)c2s1 (stereo partly drawn) [Example 63]
Second: COCCCc1cc2ncn(-c3ccc(N4CC[C@@H](N5CCCC5)C4)c(F)c3)c(=O)c2s1 [Example 61]
The IC50 of the first is 2.3-fold lower: 0.24 µM for the first, 0.56 µM for the second.

Going from `CN(C)[C@@H]1CCN(c2ccc(-n3cnc4cc(C#CC5CC5)sc4c3=O)cc2)C1` [Example 45, 6-Cyclopropylethynyl-3-[4-((R)-3-dimethylamino-pyrrolidin-1-yl)-phenyl]-3H-thieno[3,2-d]pyrimidin-4-one] to `CN(C)C1CCN(c2ccc(-n3cnc4cc(COCC5CC5)sc4c3=O)cc2)C1` (stereo not drawn) [Example 96, 6-Cyclopropylmethoxymethyl-3-[4-(3-dimethylamino-pyrrolidin-1-yl)-phenyl]-3H-thieno[3,2-d]pyrimidin-4-one], the IC50 rises from 0.11 µM to 0.6 µM (5.5-fold).

Going from `CCO/C=C\c1cc2ncn(-c3ccc(N4CCCN(C)CC4)cc3)c(=O)c2s1` [Example 74, 6-((Z)-2-Ethoxyvinyl)-3-[4-(4-methyl[1,4]diazepan-1-yl)phenyl]-3H-thieno[3,2-d]pyrimidin-4-one] to `CN(CCS(C)(=O)=O)[C@@H]1CCN(c2ccc(-n3cnc4cc(CCC5CC5)sc4c3=O)cc2)C1` [Example 50, 6-(2-Cyclopropylethyl)-3-(4-{(R)-3-[(2-methanesulfonylethyl)methylamino]pyrrolidin-1-yl}phenyl)-3H-thieno[3,2-d]pyrimidin-4-one], the IC50 falls from 2.95 µM to 0.32 µM (9.2-fold).

`C[C@@H](O)C#Cc1cc2ncn(-c3ccc(N4CC[C@@H](N5CCCC5)C4)c(F)c3)c(=O)c2s1` [Example 42] showed an IC50 of 0.18 µM.
